{"source": "patent US20260327250A1", "about": "“3-ETHYLAMINO-INDOLE DIMERS AS SEROTONERGIC AGENTS USEFUL FOR THE TREATMENT OF DISORDERS RELATED THERETO” (MINDSET PHARMA INC., priority 2022, published 2026)", "key": {"in vitro": {"assay": "in vitro", "conditions": "human, liver microsomes, Remaining Percentage after 60 min, human liver microsomes, without cofactors", "description": "(§1) The concentrations of parent compounds in reaction systems were evaluated by LC-MS/MS for estimating the stability in pooled human, male rat and male mouse liver microsomes. The in vitro intrinsic clearances of test compounds were determined as well. Protocol\n(§2) A master solution in the “Incubation Plate” containing phosphate buffer, ultra-pure H2O, MgCl2 solution and liver microsomes was made according to Table 6. The mixture was pre-warmed at 37° C. water bath for 5 minutes.\n(§3) The reaction was started with the addition of 4 μL of 200 μM exemplary test compounds of the application or control compounds to each master solution to get the final concentration of 2 μM. This study was performed in duplicate.\n(§4) Aliquots of 50 μL were taken from the reaction solution at 0, 15, 30, 45 and 60 minutes. The reaction solutions were stopped by the addition of 4 volumes of cold methanol with IS (100 nM alprazolam, 200 nM imipramine, 200 nM labetalol and 2 μM ketoprofen). Samples were centrifuged at 3,220 g for 40 minutes. Aliquot of 90 μL of the supernatant was mixed with 90 μL of ultra-pure H2O and then was used for LC-MS/MS analysis.\n(§5) All calculations were carried out using Microsoft Excel. Peak area ratios of test compound to internal standard (listed in the below table) were determined from extracted ion chromatograms.\n(§6) All calculations were carried out using Microsoft Excel. Peak areas were determined from extracted ion chromatograms. The slope value, k, was determined by linear regression of the natural logarithm of the remaining percentage of the parent drug vs. incubation time curve.\n(§7) The in vitro half-life (in vitro t½) was determined from the slope value:\n(§8) Conversion of the in vitro t½ (min) into the in vitro intrinsic clearance (in vitro CLint, in μL/min/mg proteins) was done using the following equation (mean of duplicate determinations):"}, "[1]": {"assay": "Rat liver microsomes stability", "conditions": "Remaining Percentage after 60 min", "description": "as §1, §2, §3, §4, §5, §6, §7, §8"}, "[2]": {"assay": "Mouse liver microsomes stability", "conditions": "Remaining Percentage after 60 min", "description": "as §1, §2, §3, §4, §5, §6, §7, §8"}, "Caco-2 cell monolayers": {"tested_on": "Caco-2 cell monolayers", "assay": "Intestinal mucosal permeation using Caco-2 cell monolayers", "conditions": "for Efflux ratio: Papp (B→A) / Papp (A→B); for Efflux ratio / Percentage recovery A→B / Percentage recovery B→A: 120 min, 5 µM; for Papp A→B / Percentage recovery A→B: apical to basolateral; for Papp A→B / Papp B→A: 5 μM, 37° C., 2 hours, pH 7.4; for Papp B→A / Percentage recovery B→A: basolateral to apical", "description": "The Caco-2 cell culture medium was prepared consisting of Dulbecco's Modified Eagle's Medium (DMEM) with high glucose and L-glutamine supplemented with 10% FBS, 1× penicillin-streptomycin mixture and 1× non-essential amino acids (NEAA). • 2. The 50 μL of culture medium was added to each well of the Transwell insert. Transwell insert was removed from reservoir and 25 mL of culture medium was added. • 3. Incubated at 37° C., 5% CO2 for 1 hour. Plates were ready for cell seeding. • 4. The cells were cultivated in T-75 flasks in a cell culture incubator set at 37° C., 5% CO2, 95% relative humidity. The cells were allowed to reach 80-90% confluence before detaching and splitting. • 5. The cultivated cells were rinsed in T-75 flasks with 5 mL PBS. Aspirated off, 1.5 mL trypsin/EDTA was added, and incubated at 37° C. for approximately 5 to 10 minutes or until the cells detach and float. Trypsin/EDTA was inactivated by adding excess serum containing medium. • 6. The cell suspension was moved to a conical tube and cells were pelleted by centrifugation at 120×g for 10 minutes. • 7. The cells were resuspended in seeding medium at a density of 6.86×10^5 cells/mL. This cell concentration can be used to seed 2.40×10^5 cells/cm^2. […] Seeding and Feeding of Caco-2 Cells in Transwell Plates • 1. 50 μL of above cell suspension was added to each well of a previously prepared Transwell plate. • 2. The plate was incubated for 14-18 days. The medium was replaced every other day, beginning no sooner than 48 hours after initial plating. • 3. The procedure for medium changes was as follows. The plate was removed from incubator and placed in hood. The medium was aspirated from reservoir and each Transwell insert. 75 μL of culture medium was added to each well of Transwell inserts and 25 mL of culture medium was added to reservoir tray. The plate was returned to incubator.\nWhen the 14-day Caco-2 cultured cells have reached confluence and are differentiated, they were ready to be used for transport studies. • 2. The medium was removed from reservoir and Transwell inserts. • 3. 75 μL of pre-warmed culture medium was added to each transwell insert and 25 mL of reservoir tray. • 4. The electrical resistance across the monolayer was measured using automated tissue resistance measuring system (World Precision Instruments, Sarasota, FL). • 5. The electrical resistance was recorded for each well. • 6. Once all wells were measured, the plate was returned to incubator. • 7. TEER of each well was calculated by the equation below. The TEER value of each well should be greater than 230 ohms-cm^2. TEER measurement (ohms)×Area of membrane (cm^2)=TEER value (ohm-cm^2)\nThe Caco-2 plate was removed from the incubator. Next, the monolayer was washed, and the volume exchanged two times using pre-warmed HBSS (10 mM HEPES, pH 7.4). Then the plate was incubated for 30 minutes at 37° C. • 1 mM stock solutions of control compounds and test compound(s) were prepared in DMSO and diluted with HBSS (10 mM HEPES, pH 7.4) to reach the final concentration of 5 μM. The final concentration of DMSO in the incubation system was 0.5%. Digoxin, prazosin and propranolol were used as control compounds in this assay. • 3. HBSS (10 mM HEPES, pH 7.4) was removed after 30 minutes pre-incubation. • 4. The rate of drug transport was incubated in the apical to basolateral direction. 75 μL of the control compounds and test compound was added to the Transwell insert (apical compartment). The wells were filled in the receiver plate (basolateral compartment) with 235 μL of HBSS (10 mM HEPES, pH 7.4). • 5. The rate of drug transport was determined in the basolateral to apical direction. 235 μL of the control compounds and test compound(s) was added to the receiver plate wells (basolateral compartment). The Transwell insert (apical compartment) was filled with 75 μL of HBSS (10 mM HEPES, pH 7.4). • 6. […] Incubated at 37° C. for 2 hours. • 8."}, "5-HT2 receptor": {"tested_on": "5-HT2 receptor", "conditions": "rat brain, daily administration; cited from earlier work"}, "[3]": {"tested_on": "brain's default mode network", "conditions": "humans, intravenous; cited from earlier work"}, "[4]": {"conditions": "patients; psilocybin-assisted psychotherapy or supportive setting; cited from earlier work"}, "[5]": {"conditions": "EEG during sleep; cited from earlier work"}}, "note": "“Also recorded” adds a separate entry of the source."}
{"compound": "O=C(O)Cc1ccccc1Nc1c(Cl)cccc1Cl", "note": "[Diclofenac]", "values": [{"measurement": "remaining at 1 h, 2 µM", "setting": "in vitro", "value": 95.9, "unit": "%"}, {"measurement": "remaining at 1 h, 2 µM", "setting": "[1]; with cofactors", "value": 7.11, "unit": "%"}, {"measurement": "remaining at 1 h, 2 µM", "setting": "[1]; without cofactors", "value": 97.9, "unit": "%"}, {"measurement": "remaining at 1 h, 2 µM", "setting": "[2]; with cofactors", "value": 35.9, "unit": "%"}, {"measurement": "remaining at 1 h, 2 µM", "setting": "[2]; without cofactors", "value": 97.9, "unit": "%"}]}
{"compound": "C[C@H]1O[C@@H](O[C@H]2[C@@H](O)C[C@H](O[C@H]3[C@@H](O)C[C@H](O[C@H]4CC[C@@]5(C)[C@H](CC[C@@H]6[C@@H]5C[C@@H](O)[C@]5(C)[C@@H](C7=CC(=O)OC7)CC[C@]65O)C4)O[C@@H]3C)O[C@@H]2C)C[C@H](O)[C@@H]1O", "note": "[Digoxin]", "values": [{"measurement": "Efflux ratio", "setting": "Caco-2 cell monolayers", "value": 35.38}, {"measurement": "Papp A→B", "setting": "Caco-2 cell monolayers", "value": 0.53, "unit": "cm/s × 10^−6"}, {"measurement": "Percentage recovery A→B", "setting": "Caco-2 cell monolayers", "value": 86.58, "unit": "%"}, {"measurement": "Papp B→A", "setting": "Caco-2 cell monolayers", "value": 18.89, "unit": "cm/s × 10^−6"}, {"measurement": "Percentage recovery B→A", "setting": "Caco-2 cell monolayers", "value": 104.27, "unit": "%"}]}
{"compound": "CCN(CC)C(=O)[C@@H]1C=C2c3cccc4[nH]cc(c34)C[C@H]2N(C)C1", "note": "[LSD]", "values": [{"measurement": "5-HT2 receptor density", "setting": "5-HT2 receptor", "value": "selectively decreased 5-HT2 receptor density in the rat brain; also recorded: reduce 5-HT2 receptor density in rat brain"}, {"measurement": "oscillatory power", "setting": "[3]", "value": "decreases in oscillatory power in areas of the brain's default mode network"}, {"measurement": "relief of depression and anxiety", "setting": "[4]", "value": "significant and sustained anti-depressant and anxiolytic effects"}, {"measurement": "sleep patterns", "setting": "[5]", "value": "positively affect sleep patterns"}]}
{"compound": "CC[C@H](C)C(=O)O[C@H]1C[C@@H](C)C=C2C=C[C@H](C)[C@H](CC[C@@H]3C[C@@H](O)CC(=O)O3)[C@H]21", "note": "[Lovastatin, reference compound]", "values": [{"measurement": "Remaining Percentage", "setting": "Rat plasma stability; rat plasma, 0 min", "value": 100.00, "unit": "%"}, {"measurement": "remaining at 0.5 h", "setting": "Rat plasma stability; rat, plasma", "value": 0, "unit": "%"}, {"measurement": "remaining at 1 h", "setting": "Rat plasma stability; rat, plasma", "value": 0, "unit": "%"}, {"measurement": "remaining at 2 h", "setting": "Rat plasma stability; rat, plasma", "value": 0, "unit": "%"}, {"measurement": "remaining at 3 h", "setting": "Rat plasma stability; rat, plasma", "value": 0, "unit": "%"}, {"measurement": "remaining at 4 h", "setting": "Rat plasma stability; rat, plasma", "value": 0, "unit": "%"}, {"measurement": "Remaining Percentage", "setting": "Dog plasma stability; dog plasma, 0 min", "value": 100.00, "unit": "%"}, {"measurement": "remaining at 0.5 h", "setting": "Dog plasma stability; dog, plasma", "value": 101, "unit": "%"}, {"measurement": "remaining at 1 h", "setting": "Dog plasma stability; dog, plasma", "value": 64.8, "unit": "%"}, {"measurement": "remaining at 2 h", "setting": "Dog plasma stability; dog, plasma", "value": 40.8, "unit": "%"}, {"measurement": "remaining at 3 h", "setting": "Dog plasma stability; dog, plasma", "value": 22.4, "unit": "%"}, {"measurement": "remaining at 4 h", "setting": "Dog plasma stability; dog, plasma", "value": 11, "unit": "%"}]}
{"compound": "COc1cc2nc(N3CCN(C(=O)c4ccco4)CC3)nc(N)c2cc1OC", "note": "[Prazosin]", "values": [{"measurement": "Efflux ratio", "setting": "Caco-2 cell monolayers", "value": 3.28}, {"measurement": "Papp A→B", "setting": "Caco-2 cell monolayers", "value": 10.14, "unit": "cm/s × 10^−6"}, {"measurement": "Percentage recovery A→B", "setting": "Caco-2 cell monolayers", "value": 79.47, "unit": "%"}, {"measurement": "Papp B→A", "setting": "Caco-2 cell monolayers", "value": 33.06, "unit": "cm/s × 10^−6"}, {"measurement": "Percentage recovery B→A", "setting": "Caco-2 cell monolayers", "value": 104.81, "unit": "%"}]}
{"compound": "CC(C)[N+](C)(CCOC(=O)C1c2ccccc2Oc2ccccc21)C(C)C", "note": "[Propantheline, reference compound]", "values": [{"measurement": "T1/2", "setting": "Human plasma stability; human plasma, 37° C., N.A. if no peak detected at 30 min", "value": 9.53, "unit": "min"}, {"measurement": "remaining at 0.5 h", "setting": "Human plasma stability; human, plasma", "value": 18.7, "unit": "%"}, {"measurement": "remaining at 1 h", "setting": "Human plasma stability; human, plasma", "value": 1.28, "unit": "%"}, {"measurement": "remaining at 3 h", "setting": "Human plasma stability; human, plasma", "value": 0, "unit": "%"}, {"measurement": "remaining at 4 h", "setting": "Human plasma stability; human, plasma", "value": 0, "unit": "%"}, {"measurement": "Remaining Percentage", "setting": "Mouse plasma stability; mouse plasma, 0 min", "value": 100.00, "unit": "%"}, {"measurement": "T1/2", "setting": "Mouse plasma stability; mouse plasma, 37° C., N.A. if no peak detected at 30 min", "value": 34.36, "unit": "min"}, {"measurement": "remaining at 0.5 h", "setting": "Mouse plasma stability; mouse, plasma", "value": 65.3, "unit": "%"}, {"measurement": "remaining at 1 h", "setting": "Mouse plasma stability; mouse, plasma", "value": 32.5, "unit": "%"}, {"measurement": "remaining at 2 h", "setting": "Mouse plasma stability; mouse, plasma", "value": 9.12, "unit": "%"}, {"measurement": "remaining at 3 h", "setting": "Mouse plasma stability; mouse, plasma", "value": 2.9, "unit": "%"}, {"measurement": "remaining at 4 h", "setting": "Mouse plasma stability; mouse, plasma", "value": 0.87, "unit": "%"}]}
{"compound": "CC(C)NCC(O)COc1cccc2ccccc12", "note": "(stereo not drawn) [Propranolol]", "values": [{"measurement": "Efflux ratio", "setting": "Caco-2 cell monolayers", "value": 0.69}, {"measurement": "Papp A→B", "setting": "Caco-2 cell monolayers", "value": 33.5, "unit": "cm/s × 10^−6"}, {"measurement": "Percentage recovery A→B", "setting": "Caco-2 cell monolayers", "value": 91.34, "unit": "%"}, {"measurement": "Papp B→A", "setting": "Caco-2 cell monolayers", "value": 23.09, "unit": "cm/s × 10^−6"}, {"measurement": "Percentage recovery B→A", "setting": "Caco-2 cell monolayers", "value": 92.59, "unit": "%"}]}
